Here are results for 11 compounds from ChEMBL document CHEMBL4118157, “Efficiency of newly prepared thiazole derivatives against some cutaneous fungi” (2018).

One may read the MIC as the smallest concentration in the dilution series that meets the test's criterion for growth inhibition. Broadly, the MFC is the smallest concentration meeting the test's criterion for killing the fungus. Low readings indicate more potent killing, high ones less potent killing. One may read the inhibition as how much of the control response was suppressed. Higher therefore signals a strong effect.

The structures appear in SMILES notation. Converted amounts (≈) assume the structure as drawn.

For assay [1], the system named is Candida albicans. Kind of assay: Antifungal activity against Candida albicans after 48 hrs by broth microdilution method. It counts as functional. On the technique in general: Broth dilution looks for growth in wells or tubes with falling amounts of substance.
For assay [2], the system named is Nannizzia gypsea. Put plainly: Antifungal activity against Microsporum gypseum after 72 hrs by broth microdilution method. Type of assay: functional.
In assay [3] the test system is Trichophyton mentagrophytes. Kind of assay: Antifungal activity against Trichophyton mentagrophytes after 72 hrs by broth microdilution method. It counts as functional.
The test system of assay [4] is Candida albicans. Kind of assay: Fungicidal activity against Candida albicans measured after 72 hrs. Type of assay: functional.
Assay [5] deals with Nannizzia gypsea. Put plainly: Fungicidal activity against Microsporum gypseum measured after 96 hrs. Type of assay: functional.
In assay [6] the test system is Trichophyton mentagrophytes. Kind of assay: Fungicidal activity against Trichophyton mentagrophytes measured after 96 hrs. Type of assay: functional.
Assay [7] has as its system Candida albicans. Put plainly: Inhibition of Candida albicans keratinase activity at 2 ppm incubated for 5 days under non-shaking condition and subsequent incubation for 5 days under shaking condition by UV-vis spectrophotometric analysis relative to control.
Assay [8] relates to Nannizzia gypsea. Put plainly: Inhibition of Microsporum gypseum keratinase activity at 4 ppm incubated for 5 days under non-shaking condition and subsequent incubation for 5 days under shaking condition by UV-vis spectrophotometric analysis relative to control.
Assay [9] concerns Trichophyton mentagrophytes. Kind of assay: Inhibition of Trichophyton mentagrophytes keratinase activity at 4 ppm incubated for 5 days under non-shaking condition and subsequent incubation for 5 days under shaking condition by UV-vis spectrophotometric analysis relative to control.
For assay [10], the system named is Candida albicans. Kind of assay: Inhibition of Candida albicans keratinase activity at MIC incubated for 5 days under non-shaking condition and subsequent incubation for 5 days under shaking condition by UV-vis spectrophotometric analysis relative to control.
The subject of assay [11] is Nannizzia gypsea. Kind of assay: Inhibition of Microsporum gypseum keratinase activity at MIC incubated for 5 days under non-shaking condition and subsequent incubation for 5 days under shaking condition by UV-vis spectrophotometric analysis relative to control.
Assay [12] concerns Trichophyton mentagrophytes. Kind of assay: Inhibition of Trichophyton mentagrophytes keratinase activity at MIC incubated for 5 days under non-shaking condition and subsequent incubation for 5 days under shaking condition by UV-vis spectrophotometric analysis relative to control.
The subject of assay [13] is Candida albicans. Put plainly: Antifungal activity against Candida albicans infected in guinea pig skin assessed as recovery from infection at 10 mg/g administered once daily via superficial route for 15 days measured after 30 days post last dose relative to control. Type of assay: functional.
Assay [14] deals with Nannizzia gypsea. Kind of assay: Antifungal activity against Microsporum gypseum infected in guinea pig skin assessed as recovery from infection at 10 mg/g administered once daily via superficial route for 15 days measured after 30 days post last dose relative to control. It counts as functional.
For assay [15], the system named is Trichophyton mentagrophytes. Kind of assay: Antifungal activity against Trichophyton mentagrophytes infected in guinea pig skin assessed as recovery from infection at 10 mg/g administered once daily via superficial route for 15 days measured after 30 days post last dose relative to control. It counts as functional.
The subject of assay [16] is Candida albicans. Put plainly: Antifungal activity against Candida albicans. It counts as functional.
The subject of assay [17] is Trichophyton mentagrophytes. Put plainly: Antifungal activity against Trichophyton mentagrophytes. Type of assay: functional.
For assay [18], the system named is Fungi. Kind of assay: Inhibition of fungal keratinase activity at 0.1 to 10 mg/ml relative to control.
Assay [19] has as its system Candida albicans. Put plainly: Inhibition of ergosterol biosynthesis in Candida albicans at MIC by spectrophotometric method relative to control. It counts as functional.
For assay [20], the system named is Nannizzia gypsea. Kind of assay: Inhibition of ergosterol biosynthesis in Microsporum gypseum at MIC by spectrophotometric method relative to control. Type of assay: functional.
The subject of assay [21] is Trichophyton mentagrophytes. Kind of assay: Inhibition of ergosterol biosynthesis in Trichophyton mentagrophytes at MIC by spectrophotometric method relative to control. Type of assay: functional.

With `Cc1nc(NN=C2CCN(C)CC2)sc1/N=N/c1ccccc1Cl`, the MIC in assay [1] was 32 µg/mL (≈ 88.2 µM); in [2] it was 64 µg/mL (≈ 176 µM); in assay [3] it was 64 µg/mL (≈ 176 µM). Further, the MFC in [4] is 128 µg/mL (≈ 353 µM); in assay [5], 256 µg/mL (≈ 705 µM); in assay [6], more than 256 µg/mL.
For `Cc1ccc(/N=N/c2sc(NN=C3CCN(C)CC3)nc2-c2ccccc2)cc1`, the minimal inhibitory concentration (MIC) in [1] worked out at 2 µg/mL (≈ 4.94 µM); in assay [2], 4 µg/mL (≈ 9.89 µM); in assay [3], 4 µg/mL (≈ 9.89 µM). Besides, the minimum fungicidal concentration (MFC) in assay [4] came out at 4 µg/mL (≈ 9.89 µM); in assay [5], 8 µg/mL (≈ 19.8 µM); in assay [6] it was 16 µg/mL (≈ 39.6 µM).
With `CN1CCC(=NNc2nc(-c3ccccc3)c(/N=N/c3ccccc3)s2)CC1`, the minimum inhibitory concentration (MIC) is 2 µg/mL (≈ 5.12 µM) in assay [1], 4 µg/mL (≈ 10.2 µM) in [2] and 4 µg/mL (≈ 10.2 µM) in assay [3]. The MFC in assay [4] was 4 µg/mL (≈ 10.2 µM); in assay [5], 16 µg/mL (≈ 41 µM); in assay [6], 16 µg/mL (≈ 41 µM). Besides, the inhibition in [7], in [8] and in assay [9] was 77 to 94% in each case.
For `Cc1ccc(/N=N/c2sc(NN=C3CCN(C)CC3)nc2C)cc1`, the MIC in assay [1] is 16 µg/mL (≈ 46.7 µM); in assay [2], 32 µg/mL (≈ 93.4 µM); in assay [3], 32 µg/mL (≈ 93.4 µM). Besides, the MFC was found to be 64 µg/mL (≈ 187 µM) in assay [4], 128 µg/mL (≈ 374 µM) in [5] and 256 µg/mL (≈ 748 µM) in assay [6].
`OC(Cn1cncn1)(Cn1cncn1)c1ccc(F)cc1F` [FLUCONAZOLE]: the MIC in [1] is 8 µg/mL (≈ 26.1 µM); in assay [2], 8 µg/mL (≈ 26.1 µM); in [3], 16 µg/mL (≈ 52.2 µM); in assay [16] it was 0.34 µg/mL (≈ 1.11 µM); in [17] it was 23.9 µg/mL (≈ 78 µM). Moreover, the minimum fungicidal concentration (MFC) in assay [4] amounted to 32 µg/mL (≈ 104 µM); in assay [5], 64 µg/mL (≈ 209 µM); in [6], 64 µg/mL (≈ 209 µM). Moreover, the inhibition in assay [10], in assay [11] and in assay [12] was 61.3 to 72.9% in each case. Also, the Activity in [13] came to 97%; in [14] it was 84%; in assay [15], 77%.
As to `CN1CCC(=NNc2nc(-c3ccccc3)c(/N=N/c3ccc(Cl)cc3)s2)CC1`, the values for the MIC in assay [1], in assay [2] and in assay [3] were 4 µg/mL (≈ 9.41 µM), 4 µg/mL (≈ 9.41 µM) and 8 µg/mL (≈ 18.8 µM), respectively. In addition, the figures for the minimal fungicidal concentration (MFC) in [4], in assay [5] and in assay [6] were 8 µg/mL (≈ 18.8 µM), 16 µg/mL (≈ 37.7 µM) and 32 µg/mL (≈ 75.3 µM), respectively.
For the compound `Cc1nc(NN=C2CCN(C)CC2)sc1/N=N/c1ccc(Cl)cc1`, the MIC in assay [1], in [2] and in assay [3] was 16 µg/mL (≈ 44.1 µM) each time. The figures for the minimum fungicidal concentration (MFC) in assay [4], in assay [5] and in [6] were 32 µg/mL (≈ 88.2 µM), 128 µg/mL (≈ 353 µM) and 128 µg/mL (≈ 353 µM), respectively.
Turning to `Cc1nc(NN=C2CCN(C)CC2)sc1/N=N/c1ccc(Cl)cc1Cl`, the minimum inhibitory concentration (MIC) in assay [1] is 16 µg/mL (≈ 40.3 µM); in assay [2] it was 64 µg/mL (≈ 161 µM); in assay [3], 64 µg/mL (≈ 161 µM). In addition, the MFC in assay [4] was 128 µg/mL (≈ 322 µM); in [5], 128 µg/mL (≈ 322 µM); in [6], more than 256 µg/mL.
`N#C/C(=C1/SCC(c2ccccc2Cl)S1)n1ccnc1` (stereo not drawn) showed an inhibition in [18] of 40 to 70%.
Consider `CN1CCC(=NNC2=NC(=O)/C(=N\Nc3cccc(Cl)c3)S2)CC1`, for which the MIC in assay [1] worked out at 32 µg/mL (≈ 87.7 µM); in [2], 64 µg/mL (≈ 175 µM); in [3] it was 128 µg/mL (≈ 351 µM). In addition, the minimal fungicidal concentration (MFC) in assay [4] is 128 µg/mL (≈ 351 µM); in assay [5] it was 256 µg/mL (≈ 702 µM); in assay [6] it was more than 256 µg/mL.
For the compound `Cc1nc(NN=C2CCN(C)CC2)sc1/N=N/c1ccc([N+](=O)[O-])cc1`, the MIC was 64 µg/mL (≈ 171 µM) in [1], 128 µg/mL (≈ 343 µM) in [2] and 128 µg/mL (≈ 343 µM) in assay [3]. Further, the figures for the minimum fungicidal concentration (MFC) in assay [4], in assay [5] and in assay [6] were 256 µg/mL (≈ 686 µM), more than 256 µg/mL and more than 256 µg/mL, respectively. The inhibition in assay [10], in assay [11] and in assay [12] was 10.1 to 31.4% in each case. Further, the “inhibition (INH)” value amounted to 28.5% in assay [19], 33.1% in assay [20] and 21.4% in assay [21].
